Results published in patent US20080234245A1, “Angiostatic Agents for Controlling Choroidal Neovascularisation After Ocular Surgery or Trauma” (priority 2004, published 2008).

Assays:
[1] = tested on: choroidal neovascularization (CNV) in C57BL/J mice; assay: Laser-induced choroidal neovascularization (CNV) in mice, rupture of Bruch's membrane; format: in vivo, mouse; conditions: for CNV versus vehicle-injected controls: single 5 μl intravitreal injection, 14 days post-laser
Description: Choroidal neovascularization (CNV) was induced in C57BL/J mice by rupturing Bruch's membrane via focal laser photocoagulation (FIG. 3). (Tobe T, et al., AM. J. PATHOL., 153:1641-1646 (1998)). Three to four retinal burns were placed in randomly assigned eye using the Alcon 532 nm EyeLite laser (75 μm spot size, 0.1 seconds duration, 120 mW) with a slit lamp delivery system. The laser burns were used to generate a rupture in Bruch's membrane, which was indicated opthalmoscopically by the formation of a bubble under the retina. Only mice with laser burns that produced three bubbles per eye were included in the study. Burns were typically placed at the 3, 6, 9 or 12 o'clock positions in the posterior pole of the retina, avoiding the branch retinal arteries and veins.
Each mouse was randomly assigned into one of the following treatment groups after laser: noninjected controls, sham-injected controls, vehicle-injected mice, or one of three anecortave acetate-injected groups. Control mice received laser photocoagulation in both eyes, where one eye received a sham injection, i.e. a pars plana needle puncture. For intravitreal-injected animals, one laser-treated eye received a 5 μl intravitreal injection of 0%, 0.1%, 1%, or 10% anecortave acetate. The intravitreal injection was performed immediately after laser photocoagulation.
Fourteen days post-laser, all mice were euthanized and systemically perfused with fluorescein-labeled dextran. Eyes were then harvested and prepared as choroidal flat mounts, and the 2-dimensional CNV area was quantified with computerized digital analysis, (Mori K., et al., AM. J. PATHOL. 159:313-320 (2001)). The median CNV area/burn per mouse per treatment was used for statistical analysis; P≦0.05 was considered significant.

[2] = tested on: posterior segment neovascularization (NV); conditions: intravitreal injection, rat OIR model (Penn 2001); cited from earlier work
[3] = Clark 1999; cited from earlier work

CC(=O)OCC(=O)[C@@]1(O)CC[C@H]2[C@@H]3CCC4=CC(=O)CC[C@]4(C)C3=CC[C@@]21C [anecortave acetate, 4,9(11)-pregnadien-17α,21-diol-3,20-dione-21-acetate]
CNV versus vehicle-injected controls ([1]; 0.1% anecortave acetate): No difference | CNV versus vehicle-injected controls ([1]; 1% anecortave acetate): No difference | CNV development seen as hyperfluorescent area at the site of laser photocoagulation (FIG. 4) ([1]; 10% anecortave acetate versus controls, choroidal flat mounts, fluorescein-labeled dextran): gross reduction in CNV development | effect on laser-induced choroidal neovascularization (FIG. 5) ([1]; single intravitreal injection in the mouse): inhibits laser-induced choroidal neovascularization | efficacy against posterior segment neovascularization (NV) [2]: reproducible efficacy | conventional glucocorticoid (anti-inflammatory) or mineralocorticoid activity [3]: devoid of conventional glucocorticoid (anti-inflammatory) or mineralocorticoid activity
